Laboratory results from patent US8313777B2, “Water-dispersible oral, parenteral, and topical formulations for poorly water soluble drugs using smart polymeric nanoparticles” (The Johns Hopkins University, priority 2006, dated 2012).

What was measured:
[1] = Solubilization in water, visual (turbidity, floating particles vs transparent solution); type: physicochemical; conditions: equivalent amounts of free and nanoparticle-encapsulated drug
[2] = Blood levels of rapamycin 2 hours after oral delivery (HPLC); type: in vivo, C57/B6 wild type mice; conditions: 15 mg/kg rapamycin or equivalent, 2 hours post delivery
Text: FIG. 10 illustrates blood levels of rapamycin following oral delivery of polymeric nanoparticles. Rapamycin was encapsulated in nanoparticles comprised of increasing order of acrylic acid (AA) percentage in the co-polymeric composition. The nanoparticles were either administered as is, or after surface PEGylation. Compared are: Control A (rapamycin suspended in water); rapamycin nanoparticle comprised of NIPAAM:VP:AA in a ratio of 60:30:10 (designated as NVA631); rapamycin nanoparticle comprised of NIPAAM:VP:AA in a ratio of 60:20:20 (designated as NVA622); rapamycin nanoparticle comprised of NIPAAM:VP:AA in a ratio of 60:10:30 (designated as NVA613); and rapamycin nanoparticle comprised of NIPAAM:MMA:AA in a ratio of 60:20:20 (designated as NMA622). The corresponding PEGylated nanoparticles (PEG-NVA-631, PEG-NVA-622, PEG-NVA-613, and PEG-NMA-622) encapsulating rapamycin are designated as shaded bars. […] Blood levels are measured by HPLC from samples obtained at 2 hours post oral delivery.
Rapamycin is a poorly water soluble drug that has low oral bioavailability. […] At 2 hours post oral administration, the mice were bled and rapamycin concentrations in the blood were determined by high performance liquid chromatography (HPLC). […]

[3] = test system: BxPC3 human pancreatic cancer cell line; assay: In vitro cell viability (MTT) assay, BxPC3; type: cell-based; conditions: increasing dosages, 96 hours
Text: In the illustrated example, NIPAAM/VP/AA polymeric nanoparticles in molar ratio of 60:20:20 were used for paclitaxel encapsulation. […] Also included as control in each condition were void polymeric nanoparticle equal to the amount required for encapsulating said dose of nanopaclitaxel (white bar) and solvent (dimethylsulfoxide [DMSO], blue bar) equal to the amount required for dissolving said dose of free paclitaxel. […] Thus, nano-encapsulation of the drug is not associated with loss of drug activity. […] All assays were performed in triplicate and error bars represent standard deviations.
FIG. 9 illustrates in vitro cell viability (MTT assay) performed using the water-soluble drug gemcitabine conjugated to the acrylic acid (AA) surface reactive functional group of polymeric nanoparticle. Unlike the poorly water drugs that are encapsulated within the nanoparticle, water soluble drugs like gemcitabine can be conjugated to the nanoparticle surface, rendering this compound amenable to oral delivery. Human pancreatic cancer cell line BxPC3 is incubated with increasing dosages of either free gemcitabine (black bar), nano-gemcitabine (white bar), void polymer (grey bar), or PBS solvent (patterned bar). UT=untreated. […] All assays were performed in triplicate and means and standard deviations are plotted. […]

SMILES | solubility in water (appearance of solution) [1] | blood level of rapamycin [2] | activity in cell viability assay, free vs nano-gemcitabine [3]
CO[C@H]1/C=C/O[C@@]2(C)Oc3c(C)c(O)c4c(O)c(c(/C=N/N5CCN(C)CC5)c(O)c4c3C2=O)NC(=O)/C(C)=C\C=C\[C@H](C)[C@H](O)[C@@H](C)[C@@H](O)[C@@H](C)[C@H](OC(C)=O)[C@@H]1C [free rifampicin, rifampicin] | essentially insoluble in water |  | 
CO[C@H]1C[C@@H]2CC[C@@H](C)[C@@](O)(O2)C(=O)C(=O)N2CCCC[C@H]2C(=O)O[C@H]([C@H](C)C[C@@H]2CC[C@@H](O)[C@H](OC)C2)CC(=O)[C@H](C)/C=C(\C)[C@@H](O)[C@@H](OC)C(=O)[C@H](C)C[C@H](C)/C=C/C=C/C=C/1C [free rapamycin, rapamycin] | essentially insoluble in water | essentially undetectable | 
CC(=O)O[C@H]1C(=O)[C@@]2(C)[C@H]([C@H](OC(=O)c3ccccc3)[C@]3(O)C[C@H](OC(=O)[C@H](O)[C@@H](NC(=O)c4ccccc4)c4ccccc4)C(C)=C1C3(C)C)[C@]1(OC(C)=O)CO[C@@H]1C[C@@H]2O [free paclitaxel, paclitaxel] | essentially insoluble in water |  | 
Nc1ccn([C@@H]2O[C@H](CO)[C@@H](O)C2(F)F)c(=O)n1 [free gemcitabine, gemcitabine] |  |  | comparable activity
